Legend:
GABABR = target: T1, GABABR (Rattus norvegicus, UniProt O88871+Q9Z0U4); test: GABABR antagonism by CGP55845 in hippocampal whole-cell recording; format: cell-based; conditions: n = 6, data not shown; read-out: IC50 of GABABR antagonist under our recording conditions
T1 construct: endogenous in cells; host or cells: cultured rat (E18 Sprague-Dawley) hippocampal neurons, 12-17 DIV

[1] = tested on: GABAAR-mediated tonic inhibition in hippocampal neurons; test: tonic inhibition: baseline holding current and RMS noise in cultured hippocampal neurons; format: cell-based, rat; conditions: Control to Bic (50 μM bicuculline)
Protocol: (§1) Briefly, single cells derived from dissected hippocampi were seeded onto glass coverslips coated with poly-D-lysine in a plating medium containing minimum essential media with 5% v/v heat-inactivated FCS, 5% v/v heat-inactivated horse serum, penicillin-G/streptomycin (100 U/100 μg/ml), 2 mM L-glutamine, and 20 mM glucose. Two hr after plating the media was changed to a Neurobasal-A based maintenance media supplemented with 1% v/v B-27, penicillin-G/streptomycin (100 U/100 μg/ml), 0.5% v/v Glutamax and 35 mM glucose.
(§2) Spontaneous inhibitory postsynaptic currents (sIPSCs) were recorded from cultured hippocampal neurons at 12–17 days in vitro (DIV). […] For recording K^+ currents in GIRK cells and neurons, the bath solution was switched to a high K^+ solution containing 25 mM KCl and reduced NaCl (120 mM), to shift the equilibrium potential for K^+ from approximately −90 to −47 mV, thus reversing the direction of K^+ current flux to net inward. GABABR-activated K^+ currents in cultured neurons were recorded in the additional presence of 2 mM kynurenic acid and 20 μM picrotoxin.
(§3) Borosilicate glass electrodes (3–5 MΩ) were filled with a K^+-based internal solution for recording GIRK currents containing (mM): 120 KCl, 2 MgCl2, 11 EGTA, 30 KOH, 10 HEPES, 1 CaCl2, 1 GTP, 2 ATP, 14 creatine phosphate, pH 7.0. GABAAR currents and sIPSCs were recorded with a Cs-based internal solution containing (mM): 120 CsCl, 1 MgCl2, 11 EGTA, 30 KOH, 10 HEPES, 1 CaCl2, and 2 K2ATP; pH 7.2. […] Cells were held at −60 mV (sIPSCs) or −60/−70 mV (K^+ currents). Voltage clamp recordings were undertaken after optimising series resistance (Rs, <10 MΩ) and compensating for the whole-cell membrane capacitance. Membrane currents were filtered at 5 kHz (−3 dB, 6th pole Bessel, 36 dB/octave) and stored for analysis with Clampex 10.
For tonic inhibition, to determine the average holding currents, a 30 s continuous holding current recording was sampled every 1 s, discarding epochs that coincided with sIPSCs. Any effect of CGP7930 or bicuculline on the holding current was defined by subtracting the average holding currents in control and during drug application. The baseline root-mean-square current variance (RMS) was calculated before and during drug treatment. This was estimated from a continuous (20 s) current recording, sampled every 100 ms. The median current was calculated every 5 s and values more than twice the standard deviation from the median (usually due to IPSCs) were eliminated. All drugs were applied using a U-tube rapid drug application system, or more slowly via bath perfusion.
We assessed the effect of CGP7930 on tonic inhibition in hippocampal cultured neurons.

[2] = tested on: GABAARs in hippocampal neurons; test: slow inward current directly activated by CGP7930 in hippocampal neurons in high K+ external solution and its block by GABAAR antagonists; format: cell-based, rat; conditions: antagonist 100 μM, P < 0.001
Protocol: as §2
CGP7930 modulation at neuronal GABABRs was also characterised using baclofen-activated GIRK currents in hippocampal cultures similarly bathed in a high external K^+ concentration.

[3] = tested on: native GABAARs in hippocampal neurons; test: muscimol-activated and CGP7930-activated GABAAR currents in hippocampal neurons, Cs+-based internal solution; format: cell-based, rat; conditions: read-out: muscimol EC50; hippocampal neurons, n = 9
Protocol: as §1, §2, §3
Concentration-response curves were generated by measuring the current (I) for each ligand concentration and normalising to the maximal current response (Imax).

T1 sequence (Q9Z0U4 17-960 limits assumed): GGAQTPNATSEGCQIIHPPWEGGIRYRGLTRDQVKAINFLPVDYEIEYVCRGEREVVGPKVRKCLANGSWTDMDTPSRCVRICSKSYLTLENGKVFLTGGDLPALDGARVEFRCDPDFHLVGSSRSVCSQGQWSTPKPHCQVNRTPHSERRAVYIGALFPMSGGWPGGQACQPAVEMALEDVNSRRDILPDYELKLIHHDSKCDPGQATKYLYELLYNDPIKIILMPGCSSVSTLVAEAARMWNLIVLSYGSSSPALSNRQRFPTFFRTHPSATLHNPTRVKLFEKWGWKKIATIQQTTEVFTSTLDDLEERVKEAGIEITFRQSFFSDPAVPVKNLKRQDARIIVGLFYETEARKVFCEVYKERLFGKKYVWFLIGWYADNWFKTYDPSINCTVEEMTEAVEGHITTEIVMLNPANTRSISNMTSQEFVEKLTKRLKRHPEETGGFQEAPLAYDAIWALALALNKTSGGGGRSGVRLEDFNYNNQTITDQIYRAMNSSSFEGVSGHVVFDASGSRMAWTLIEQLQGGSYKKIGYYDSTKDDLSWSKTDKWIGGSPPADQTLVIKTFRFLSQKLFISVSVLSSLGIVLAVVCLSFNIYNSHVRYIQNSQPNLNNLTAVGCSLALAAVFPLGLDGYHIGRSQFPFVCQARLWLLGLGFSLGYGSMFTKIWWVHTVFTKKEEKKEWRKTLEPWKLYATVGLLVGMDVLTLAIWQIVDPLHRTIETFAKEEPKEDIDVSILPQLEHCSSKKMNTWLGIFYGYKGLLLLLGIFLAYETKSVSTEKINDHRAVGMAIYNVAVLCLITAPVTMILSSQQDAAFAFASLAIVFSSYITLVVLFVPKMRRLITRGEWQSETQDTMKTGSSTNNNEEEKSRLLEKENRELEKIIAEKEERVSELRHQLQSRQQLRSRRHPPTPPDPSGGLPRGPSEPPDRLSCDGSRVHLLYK
T1 sequence (O88871 41-940): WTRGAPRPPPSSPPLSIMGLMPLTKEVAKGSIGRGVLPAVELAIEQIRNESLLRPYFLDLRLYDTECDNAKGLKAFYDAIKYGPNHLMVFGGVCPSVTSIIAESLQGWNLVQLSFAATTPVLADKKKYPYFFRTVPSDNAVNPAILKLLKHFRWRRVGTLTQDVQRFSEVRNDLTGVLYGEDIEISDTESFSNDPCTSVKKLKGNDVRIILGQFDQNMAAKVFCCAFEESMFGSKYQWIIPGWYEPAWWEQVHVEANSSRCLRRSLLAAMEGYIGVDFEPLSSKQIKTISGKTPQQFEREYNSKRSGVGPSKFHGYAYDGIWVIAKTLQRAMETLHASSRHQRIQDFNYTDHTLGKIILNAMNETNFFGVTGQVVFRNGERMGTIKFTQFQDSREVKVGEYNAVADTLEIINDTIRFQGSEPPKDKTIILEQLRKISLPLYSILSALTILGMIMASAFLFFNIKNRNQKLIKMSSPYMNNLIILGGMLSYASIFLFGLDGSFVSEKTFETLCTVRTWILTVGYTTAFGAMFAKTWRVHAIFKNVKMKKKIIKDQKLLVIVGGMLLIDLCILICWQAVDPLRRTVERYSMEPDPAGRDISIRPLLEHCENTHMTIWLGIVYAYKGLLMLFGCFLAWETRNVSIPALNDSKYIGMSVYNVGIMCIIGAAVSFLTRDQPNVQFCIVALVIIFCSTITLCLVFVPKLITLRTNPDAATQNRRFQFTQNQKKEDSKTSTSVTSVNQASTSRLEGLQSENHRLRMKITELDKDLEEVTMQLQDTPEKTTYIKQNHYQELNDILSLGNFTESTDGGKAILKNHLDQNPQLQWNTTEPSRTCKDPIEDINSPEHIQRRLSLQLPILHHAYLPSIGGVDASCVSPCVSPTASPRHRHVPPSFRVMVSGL

## C[C@H](NC[C@H](O)CP(=O)(O)Cc1ccccc1)c1ccc(Cl)c(Cl)c1 [CGP55845]
GABABR
  IC50: 10 ± 0.7 nM

## CN1CCc2cc3c(cc2[C@H]1[C@@H]1OC(=O)c2c1ccc1c2OCO1)OCO3 [bicuculline]
[1]
  Tonic currents (change in baseline holding current): 38.02 ± 7.43 (6) pA
[2]
  effect on the slow inward current caused by > 3 μM CGP7930: abolished

## NCc1cc(=O)[nH]o1 [muscimol]
[3]
  EC50: 2700 ± 100 nM

## picrotoxin
[2]
  effect on the slow inward current caused by > 3 μM CGP7930: abolished
